# Laboratory results as given in patent publication US11236129B2, “IL-17A binding peptides and medical uses thereof” (Dompe' Farmaceutici S.P.A., priority 2018, dated 2022).
# Residues, ends and D or L forms follow the SMILES beside them.
# Target: IL-17RA/IL17RC dimerization induced by IL-17A (Homo sapiens, UniProt Q16552)
# Test: IL-17RA/IL17RC dimerization assay in response to IL-17A (PathHunter Cytokine Receptor Assay)
# Format: cell-based
# Details: IL-17A at EC80; read-out: IC50 in IL-17RA/IL7RC dimerization assay
# Experimental: The peptides of Table 7 were tested for their ability to inhibit the binding of IL-17A to its receptor and the subsequent interaction of IL-17RA and IL17RC.
# Interleukin receptor RA and RC dimerization assay (DiscoverX) was used to measure the interaction of the receptor chains IL-17RA and IL17RC upon activation by IL-17A in the absence or presence of the peptides of Table 7.
# In the PathHunter® Cytokine Receptor Assay, one cytokine receptor chain is tagged with a small peptide epitope ProLink (PK) and the other chain is tagged with Enzyme Acceptor (EA). Ligand binding induces dimerization of the two receptors, facilitating complementation of PK and EA fragments. This interaction generates an active unit of b-galactosidase, which is detected using a chemiluminescent substrate. PathHunter cell lines were expanded from freezer stocks according to standard procedures. Cells were seeded in a total volume of 20 μL into white walled, 384-well microplates and incubated for the appropriate time prior to testing. For agonist activity inhibition, cells were incubated with sample to induce response. Intermediate dilution of sample stocks was performed to generate 5× sample in assay buffer. 5 μL of 5× sample was added to cells and incubated at 37° C. or room temperature for 60 minutes. Vehicle concentration was 1%. 5 μL of 6×EC80 agonist (IL-17A) in assay buffer was added to the cells and incubated at 37° C. for 6 to 16 hours depending on the assay. 1. […] For some assays, activity was detected using a high sensitivity detection reagent (PathHunter Flash Kit) to improve assay performance. In these assays, an equal volume of detection reagent (25 or 30 uL) was added to the wells, followed by a one hour incubation at room temperature. Microplates were read following signal generation with a PerkinElmer Envision™ instrument for chemiluminescent signal detection. Compound activity was analyzed using CBIS data analysis suite (ChemInnovation, CA). % Inhibition=100%×(1−(mean RLU of test sample−mean RLU of vehicle control)/(mean RLU of EC80 control−mean RLU of vehicle control)).
# Sequence of IL-17RA/IL17RC dimerization induced by IL-17A (Q16552 24-155): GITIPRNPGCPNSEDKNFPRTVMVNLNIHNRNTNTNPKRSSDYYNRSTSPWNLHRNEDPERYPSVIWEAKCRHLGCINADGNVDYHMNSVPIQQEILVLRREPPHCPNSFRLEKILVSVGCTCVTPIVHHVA
row,IC50,SMILES
1,< 10 µM,CC[C@H](C)[C@H](NC(C)=O)C(=O)N[C@@H](Cc1c[nH]cn1)C(=O)N[C@H](C(=O)N[C@H](C(=O)N[C@H](C(=O)N1CCC[C@H]1C(=O)N[C@@H](C)C(=O)N[C@@H](CC(=O)O)C(=O)N[C@@H](CC(C)C)C(=O)N[C@@H](Cc1c[nH]c2ccccc12)C(=O)N[C@@H](CC(=O)O)C(=O)N[C@@H](Cc1c[nH]c2ccccc12)C(=O)NCC(=O)N[C@@H](CC(N)=O)C(=O)N[C@@H](CCCCN)C(N)=O)[C@@H](C)CC)[C@@H](C)O)C(C)C [SEQ ID NO: 215] (Ac-IHVTIPADLWDWGNK-NH2)
2,< 10 µM,CC[C@H](C)[C@H](NC(C)=O)C(=O)N[C@@H](Cc1c[nH]cn1)C(=O)N[C@H](C(=O)N[C@H](C(=O)N[C@@H](CC(C)C)C(=O)N1CCC[C@H]1C(=O)N[C@@H](C)C(=O)N[C@@H](CC(=O)O)C(=O)N[C@@H](CC(C)C)C(=O)N[C@@H](Cc1c[nH]c2ccccc12)C(=O)N[C@@H](CC(=O)O)C(=O)N[C@@H](Cc1c[nH]c2ccccc12)C(=O)N[C@H](C(=O)N[C@@H](CC(N)=O)C(=O)N[C@@H](CCCCN)C(N)=O)[C@@H](C)CC)[C@@H](C)O)C(C)C [SEQ ID NO: 181] (Ac-IHVTLPADLWDWINK-NH2)
3,< 10 µM,CC[C@H](C)[C@H](NC(C)=O)C(=O)N[C@@H](Cc1c[nH]cn1)C(=O)N[C@H](C(=O)N[C@H](C(=O)N[C@H](C(=O)N1CCC[C@H]1C(=O)N[C@@H](C)C(=O)N[C@@H](CCC(N)=O)C(=O)N[C@@H](CC(C)C)C(=O)N[C@@H](Cc1c[nH]c2ccccc12)C(=O)N[C@@H](CC(=O)O)C(=O)N[C@@H](Cc1c[nH]c2ccccc12)C(=O)N[C@H](C(=O)N[C@@H](CC(N)=O)C(=O)N[C@@H](CCCCN)C(N)=O)[C@@H](C)CC)[C@@H](C)CC)[C@@H](C)O)C(C)C [SEQ ID NO: 199] (Ac-IHVTIPAQLWDWINK-NH2)
4,< 10 µM,CC[C@H](C)[C@H](NC(C)=O)C(=O)N[C@@H](Cc1c[nH]cn1)C(=O)N[C@H](C(=O)N[C@H](C(=O)N[C@H](C(=O)N1CCC[C@H]1C(=O)N[C@@H](C)C(=O)N[C@@H](CC(=O)O)C(=O)N[C@@H](CC(C)C)C(=O)N[C@@H](Cc1c[nH]c2ccccc12)C(=O)N[C@@H](CC(=O)O)C(=O)N[C@@H](Cc1c[nH]c2ccccc12)C(=O)N[C@@H](C)C(=O)N[C@@H](CC(N)=O)C(=O)N[C@@H](CCCCN)C(N)=O)[C@@H](C)CC)[C@@H](C)O)C(C)C [SEQ ID NO: 214] (Ac-IHVTIPADLWDWANK-NH2)
5,< 10 µM,CC[C@H](C)[C@H](NC(C)=O)C(=O)N[C@@H](Cc1c[nH]cn1)C(=O)N[C@H](C(=O)N[C@H](C(=O)N[C@@H](C)C(=O)N1CCC[C@H]1C(=O)N[C@@H](C)C(=O)N[C@@H](CC(=O)O)C(=O)N[C@@H](CC(C)C)C(=O)N[C@@H](Cc1c[nH]c2ccccc12)C(=O)N[C@@H](CC(=O)O)C(=O)N[C@@H](Cc1c[nH]c2ccccc12)C(=O)N[C@H](C(=O)N[C@@H](CC(N)=O)C(=O)N[C@@H](CCCCN)C(N)=O)[C@@H](C)CC)[C@@H](C)O)C(C)C [SEQ ID NO: 179] (Ac-IHVTAPADLWDWINK-NH2)
6,< 10 µM,CC[C@H](C)[C@H](NC(C)=O)C(=O)N[C@@H](Cc1c[nH]cn1)C(=O)N[C@H](C(=O)N[C@H](C(=O)N[C@H](C(=O)N1CCC[C@H]1C(=O)N[C@@H](C)C(=O)N[C@@H](CC(=O)O)C(=O)N[C@H](C(=O)N[C@@H](Cc1c[nH]c2ccccc12)C(=O)N[C@@H](CC(=O)O)C(=O)N[C@@H](Cc1c[nH]c2ccccc12)C(=O)N[C@H](C(=O)N[C@@H](CC(N)=O)C(=O)N[C@@H](CCCCN)C(N)=O)[C@@H](C)CC)C(C)C)[C@@H](C)CC)[C@@H](C)O)C(C)C [SEQ ID NO: 204] (Ac-IHVTIPADVWDWINK-NH2)
7,< 10 µM,CC[C@H](C)[C@H](NC(C)=O)C(=O)N[C@@H](Cc1c[nH]cn1)C(=O)N[C@H](C(=O)N[C@H](C(=O)N[C@H](C(=O)N1CCC[C@H]1C(=O)N[C@@H](C)C(=O)N[C@@H](CC(=O)O)C(=O)N[C@@H](C)C(=O)N[C@@H](Cc1c[nH]c2ccccc12)C(=O)N[C@@H](CC(=O)O)C(=O)N[C@@H](Cc1c[nH]c2ccccc12)C(=O)N[C@H](C(=O)N[C@@H](CC(N)=O)C(=O)N[C@@H](CCCCN)C(N)=O)[C@@H](C)CC)[C@@H](C)CC)[C@@H](C)O)C(C)C [SEQ ID NO: 201] (Ac-IHVTIPADAWDWINK-NH2)

# More lines, now with the values behind:
row,SMILES,IC50
1,CC[C@H](C)[C@H](NC(C)=O)C(=O)N[C@@H](Cc1c[nH]cn1)C(=O)N[C@@H](Cc1c[nH]c2ccccc12)C(=O)N[C@H](C(=O)N[C@H](C(=O)N1CCC[C@H]1C(=O)N[C@@H](C)C(=O)N[C@@H](CC(=O)O)C(=O)N[C@@H](CC(C)C)C(=O)N[C@@H](Cc1c[nH]c2ccccc12)C(=O)N[C@@H](CC(=O)O)C(=O)N[C@@H](Cc1c[nH]c2ccccc12)C(=O)N[C@H](C(=O)N[C@@H](CC(N)=O)C(=O)N[C@@H](CCCCN)C(N)=O)[C@@H](C)CC)[C@@H](C)CC)[C@@H](C)O [SEQ ID NO: 173] (Ac-IHWTIPADLWDWINK-NH2),< 10 µM
2,CC(=O)N[C@H](C(=O)N[C@H](C(=O)N[C@H](C(=O)N[C@@H](Cc1ccc(O)cc1)C(=O)N[C@H](C(=O)N[C@@H](Cc1ccccc1)C(=O)N[C@@H](CC(N)=O)C(=O)N[C@@H](CCC(=O)O)C(=O)N[C@@H](CCC(N)=O)C(=O)N[C@@H](Cc1c[nH]cn1)C(=O)N[C@@H](CCC(N)=O)C(=O)N[C@@H](CCC(=O)O)C(=O)N[C@@H](Cc1ccc(O)cc1)C(=O)N[C@H](C(=O)N[C@@H](CCCNC(=N)N)C(=O)N[C@@H](CCCCN)C(N)=O)C(C)C)C(C)C)C(C)C)C(C)C)[C@@H](C)O [SEQ ID NO: 257] (Ac-TVVYVFNEQHQEYVRK-NH2),< 10 µM
3,CC[C@H](C)[C@H](NC(=O)[C@H](Cc1c[nH]c2ccccc12)NC(=O)[C@H](CC(=O)O)NC(=O)[C@H](Cc1c[nH]c2ccccc12)NC(=O)[C@H](CC(C)C)NC(=O)[C@H](CC(=O)O)NC(=O)[C@H](C)NC(=O)[C@@H]1CCCN1C(=O)[C@@H](NC(=O)[C@H](Cc1ccc(O)cc1)NC(=O)CNC(=O)[C@H](CCCNC(=N)N)NC(=O)[C@@H](NC(C)=O)C(C)C)C(C)C)C(=O)N[C@@H](CC(N)=O)C(=O)N[C@@H](CCCCN)C(N)=O [SEQ ID NO: 242] (Ac-VRGYVPADLWDWINK-NH2),< 10 µM
4,CC[C@H](C)[C@H](NC(C)=O)C(=O)N[C@@H](Cc1c[nH]cn1)C(=O)N[C@H](C(=O)N[C@H](C(=O)N[C@H](C(=O)N1CCC[C@H]1C(=O)N[C@@H](C)C(=O)N[C@@H](CC(=O)O)C(=O)N[C@@H](CC(C)C)C(=O)N[C@@H](Cc1c[nH]c2ccccc12)C(=O)N[C@@H](CC(=O)O)C(=O)N[C@@H](Cc1c[nH]c2ccccc12)C(=O)N[C@@H](Cc1ccc(O)cc1)C(=O)N[C@@H](CC(N)=O)C(=O)N[C@@H](CCCCN)C(N)=O)[C@@H](C)CC)[C@@H](C)O)C(C)C [SEQ ID NO: 219] (Ac-IHVTIPADLWDWYNK-NH2),< 10 µM
5,CC[C@H](C)[C@H](NC(C)=O)C(=O)N[C@@H](Cc1c[nH]cn1)C(=O)N[C@H](C(=O)N[C@H](C(=O)N[C@H](C(=O)N[C@@H](C)C(=O)N[C@@H](C)C(=O)N[C@@H](CC(=O)O)C(=O)N[C@@H](CC(C)C)C(=O)N[C@@H](Cc1c[nH]c2ccccc12)C(=O)N[C@@H](CC(=O)O)C(=O)N[C@@H](Cc1c[nH]c2ccccc12)C(=O)N[C@H](C(=O)N[C@@H](CC(N)=O)C(=O)N[C@@H](CCCCN)C(N)=O)[C@@H](C)CC)[C@@H](C)CC)[C@@H](C)O)C(C)C [SEQ ID NO: 186] (Ac-IHVTIAADLWDWINK-NH2),< 10 µM
6,CC[C@H](C)[C@H](NC(=O)[C@H](CO)NC(=O)[C@@H](NC(=O)[C@H](Cc1c[nH]cn1)NC(=O)[C@@H](NC(C)=O)C(C)C)C(C)C)C(=O)N1CCC[C@H]1C(=O)N[C@@H](CCC(N)=O)C(=O)N[C@@H](CCC(=O)O)C(=O)N[C@@H](CC(C)C)C(=O)N[C@@H](Cc1c[nH]c2ccccc12)C(=O)N[C@@H](CCC(=O)O)C(=O)N[C@@H](Cc1c[nH]c2ccccc12)C(=O)N[C@H](C(=O)N[C@@H](CCCNC(=N)N)C(=O)N[C@@H](CCCNC(=N)N)C(N)=O)C(C)C [SEQ ID NO: 230] (Ac-VHVSIPQELWEWVRR-NH2),< 10 µM
7,CC[C@H](C)[C@H](NC(C)=O)C(=O)N[C@@H](Cc1c[nH]cn1)C(=O)N[C@H](C(=O)N[C@H](C(=O)N[C@H](C(=O)N1CCC[C@H]1C(=O)N[C@@H](CC(C)C)C(=O)N[C@@H](CCC(=O)O)C(=O)N[C@H](C(=O)N[C@@H](Cc1ccccc1)C(=O)N[C@@H](CCC(=O)O)C(=O)N[C@@H](Cc1c[nH]c2ccccc12)C(=O)N[C@@H](CC(C)C)C(=O)N[C@@H](CCC(N)=O)C(=O)N[C@@H](Cc1c[nH]cn1)C(N)=O)C(C)C)[C@@H](C)CC)[C@@H](C)O)C(C)C [SEQ ID NO: 249] (Ac-IHVTIPLEVFEWLQH-NH2),< 10 µM
8,CC(=O)N[C@H](C(=O)N[C@@H](Cc1c[nH]cn1)C(=O)N[C@H](C(=O)N[C@H](C(=O)N[C@H](C(=O)N1CCC[C@H]1C(=O)N[C@@H](CCC(N)=O)C(=O)N[C@@H](CCC(=O)O)C(=O)N[C@@H](CC(C)C)C(=O)N[C@@H](Cc1ccc(O)cc1)C(=O)N[C@@H](CCC(=O)O)C(=O)N[C@@H](Cc1c[nH]c2ccccc12)C(=O)N[C@H](C(=O)N[C@@H](CCC(=O)O)C(=O)N[C@@H](CCC(=O)O)C(N)=O)C(C)C)C(C)C)[C@@H](C)O)C(C)C)C(C)C [SEQ ID NO: 229] (Ac-VHVTVPQELYEWVEE-NH2),< 10 µM
